Test results as given in article PMC10065799, “High-throughput profiling of sequence recognition by tyrosine kinases and SH2 domains using bacterial peptide display” (eLife, 2023).

Target: T1, c-Abl kinase domain (Mus musculus, UniProt P00520)
T1 sequence (P00520 242-493 limits assumed): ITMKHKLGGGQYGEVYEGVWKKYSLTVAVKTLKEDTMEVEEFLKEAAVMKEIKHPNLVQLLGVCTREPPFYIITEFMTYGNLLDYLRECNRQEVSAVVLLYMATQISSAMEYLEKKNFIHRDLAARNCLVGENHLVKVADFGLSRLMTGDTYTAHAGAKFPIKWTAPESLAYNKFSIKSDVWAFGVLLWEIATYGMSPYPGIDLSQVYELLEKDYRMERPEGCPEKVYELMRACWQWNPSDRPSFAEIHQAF
Test: pTyr-Var library bacterial peptide display kinase screen (enrichment scores)
Assay type: biochemical
Details: variant versus reference peptide

DRVALYVAREG [AACS_Y117_I118V]
c-Abl difference (mean log2 variant - mean log2 reference): -0.3292
